{"source": "patent US20160038563A1", "about": "“MOLECULAR TARGETS FOR HEALING OR TREATING WOUNDS” (University College Cardiff Consultants Limited, priority 2010, published 2016)", "key": {"[1]": {"tested_on": "HECV cells transfected and forced to express nWASP", "experiment": "endothelial tubule forming assay, HECV forced to express nWASP", "assay_type": "cell-based, human", "conditions": "nWASP expressing HECV cells, after 48 hours"}, "wound in db/db mice": {"tested_on": "wound in db/db mice", "experiment": "in vivo efficacy test, wound healing (ear punch wound)", "conditions": "for size of wounds vs control: after three weeks", "text": "(§1) The diabetic strain of db/db was obtained from Harlan. 4-6 weeks old with body weight at 20 g were used. […] Briefly, after being housed for a week, the db/db mice were first ear-pieced using an ear puncher, in order to create a wound (hole) of 1 mm in diameter. The following day after wound creation, all the db/db were weighed, wound photographed using a digital camera. Treatment was given systemically (by IP injection) or topically (by manually applying the compounds in gel into the wound area). Both treatments were given every other day. Images were obtained weekly. The size of the wounds was determined using an image analysis software. Data are given in two ways:\n1. the area of the wounds in pixels. Two sample student t test was used for statistical analysis. 2. change of the size of wound over the starting point calculated using: (area at a given point—area at the starting point)/(area of the starting point)×100. Bonferroni model was used for data analysis.\nWiskostatin was first dissolved in DMSO at concentration of 5 mg/ml. The DMSO solution was then gradually diluted in BSS in order to avoid precipitation. The solutions were prepared such that each 100 ul contained the correct amount of compounds and was aliquatted and stored at −20° C. until used. The compounds were injected every other day by the IP route. […] Treatment was given every other working day (Monday, Wednesday and Friday) and the images obtained on Wednesday.\nFor topical application, we used two conventional carrier gels (purchased from Pharmacy of University Hospital of Wales) that are currently used in wound care. […] For use, a small amount (150 ul) of the gel was applied to the wound area and gently rubbed in using fingers. Treatment was given every other working day (Monday, Wednesday and Friday) and the images obtained on Wednesday."}, "HECV cells": {"tested_on": "HECV cells", "experiment": "endothelial tubule forming assay, HECV wild type (negative for nWASP)", "assay_type": "cell-based, human", "conditions": "HECV cells negative for nWASP expression"}, "HaCaT cells [2]": {"tested_on": "HaCaT cells", "experiment": "ECIS cell migration assay (electric wounding) and micromotion", "assay_type": "cell-based, human", "conditions": "for resistance following wounding (migration): measured at 400 Hz; for cell migration of transfected HaCaT cells: vs wild type HaCaT, electric wounding, ECIS", "text": "• 1. Cells and Human keratinocytes and melanoma Cells (HaCaT-from The German Cancer Institute/Cell Service, Germany and A431—from ATCC), human vascular endothelial cell, HECV (from Interlab, Italy) were used. Recombinant human HGF was from the research laboratory. nWASP inhibitors, Wiskostatin and 187-1 were from Merck Pharmaceuticals and TOCRIS, respectively. Tissue collection and preparation of RNA/cDNA bank from human wound/skin tissues. Fresh tissues from abnormal/chronic wounds (n=14), acute wounds (n=10) and normal skin from healthy volunteers (n=10) were collected under an approval from the local ethical committee (Ethical approval ID: 05/WSE03/92) and stored in −80° C. until use. Written informed consent was obtained from each patient who agreed for a biopsy to be taken. Tissues were frozen sectioned on a cryostat (Leica). A portion of the sections were kept for histological analysis. Approximate 20 sections were pooled and homogenised using a hand-held homogenizer using a procedure to extract RNA from the tissues. RNA extracted from the tissues was quantified and cDNA was subsequently generated using a RT kit. Abnormal/chronic wound tissues were from patients with abnormal/chronic leg ulcers. Acute wound tissues were obtained from patients with acute surgical wounds after undergoing excision of pilonidal disease. Normal tissues were from normal volunteer's normal skin. • 2. Analysis of nWASP gene transcripts was carried out using conventional and quantitative real time PCR (Icycler IQ, Bio-Rad) on human wound and skin tissues and cells. For conventional PCR, primers used were: NWASPF8 (5′agtccctatcactttcctc′3) (SEQ ID NO 1) and NWASPR8 (5′[…]′3) (SEQ ID NO 2) and NWASPF9 (5′[…]′3) (SEQ ID NO 3) and NWASPR9 (5′[…]′3) (SEQ ID NO 4). For Q-PCR primers used were nWASPF1 and NWASPZR1 (5′[…]′3) (SEQ ID NO 5) and (5′[…]′3) (SEQ ID NO 6). • 3. The study adopted the Ampliflor quantitation technology, in which one set of gene specific primers and a Uniprimer probes were used, in combination with quantitative PCR master mix. The reaction was carried out using ICycler^IQ (Bio-Rad). An internal standard was employed for quantitation purpose. In all the assays, GAPDH and actin were amplified and used as the house keeping controls. Levels of a specific gene was normalised to the expression level of GAPDH in the respective sample for example, nWASP, GAPDH and actin transcripts (mRNA) were measure in the same sample. nWASP was then normalised to GAPDH. • 4. Evaluation of cells response to wound stress after n-WASP is targeted. Here, an in vitro cell model, based on the ECIS system, was adopted. Briefly, cells were allowed to sit in the electric arrays and an 8E10 format was used. Cells in fixed number and fixed volume of culture medium were added into each of the respective wells, which had either control medium or a specific inhibitor to N-WASP, namely Wiskostatin or 187-1. In selected wells, a cell migration inducer, HGF was also included in the absence or presence of the nWASP inhibitors. Cells were investigated for the following functions: the adhesiveness to the matrix surface and the migration capacity. The first was recorded immediately after plating of the cells into each well at 3 frequencies: 400 Hz, 4,000 Hz, and 40,000 Hz. The frequencies were chosen following a frequency scanning (FIG. 3). Two main cell functions were thus tested here: the adhesiveness of the cells to matrix and cell migration. • 5. Creation of cell models. We have created a new cell model, based on a human keratinocyte cell line, HaCaT, which expressed high levels of n-WASP. By using anti-nWASP transgenes, we successfully knocked out the expression of n-WASP from the cells and subsequently used the cells in our testing. Briefly, the secondary structure (FIG. 2) of human nWASP was generated using Zuker's RNA mFold software. Three suitable sites for targeting within the nWASP mRNA were identified. […]"}, "[3]": {"experiment": "tolerance in db/db strain", "assay_type": "in vivo, db/db mice", "conditions": "administered systemically (IP), efficacy study", "procedure": "(§2) First, the main tolerance tests were conducted using the CD-1 athymic mice (Charles River Laboratories), owing to their slow and steady rate of growth and easier to observe changes in the skin (hairless) and other possible side effects. Briefly, CD-1 of 4-6 weeks old, 20 g in weight, were housed in filter topped cages. […] Both compounds were given at […] final concentration in 100 ul in volume. […] CD-1 were observed daily, weighed twice weekly. An additional tolerance and efficacy test was carried out using the db/db strain.\nas §1\nWiskostatin was first dissolved in DMSO at concentration of 5 mg/ml. The DMSO solution was then gradually diluted in BSS in order to avoid precipitation. […]"}, "HaCaT cells [4]": {"tested_on": "HaCaT cells", "experiment": "ECIS cell adhesion assay", "assay_type": "cell-based, human", "text": "(§3) • 1. Cells and Human keratinocytes and melanoma Cells (HaCaT-from The German Cancer Institute/Cell Service, Germany and A431—from ATCC), human vascular endothelial cell, HECV (from Interlab, Italy) were used. Recombinant human HGF was from the research laboratory. nWASP inhibitors, Wiskostatin and 187-1 were from Merck Pharmaceuticals and TOCRIS, respectively. Tissue collection and preparation of RNA/cDNA bank from human wound/skin tissues. Fresh tissues from abnormal/chronic wounds (n=14), acute wounds (n=10) and normal skin from healthy volunteers (n=10) were collected under an approval from the local ethical committee (Ethical approval ID: 05/WSE03/92) and stored in −80° C. until use. Written informed consent was obtained from each patient who agreed for a biopsy to be taken. Tissues were frozen sectioned on a cryostat (Leica). A portion of the sections were kept for histological analysis. Approximate 20 sections were pooled and homogenised using a hand-held homogenizer using a procedure to extract RNA from the tissues. RNA extracted from the tissues was quantified and cDNA was subsequently generated using a RT kit. Abnormal/chronic wound tissues were from patients with abnormal/chronic leg ulcers. Acute wound tissues were obtained from patients with acute surgical wounds after undergoing excision of pilonidal disease. Normal tissues were from normal volunteer's normal skin. • 2. Analysis of nWASP gene transcripts was carried out using conventional and quantitative real time PCR (Icycler IQ, Bio-Rad) on human wound and skin tissues and cells. […] The study adopted the Ampliflor quantitation technology, in which one set of gene specific primers and a Uniprimer probes were used, in combination with quantitative PCR master mix. […] An internal standard was employed for quantitation purpose. […] The first was recorded immediately after plating of the cells into each well at 3 frequencies: 400 Hz, 4,000 Hz, and 40,000 Hz. […]"}, "[5]": {"experiment": "in vivo tolerance test in CD-1 athymic mice", "conditions": "intraperitoneal, daily, 1 and 10 uM, two weeks", "procedure": "as §2"}, "HaCaT cells [6]": {"tested_on": "HaCaT cells", "experiment": "growth of HaCaT cells", "assay_type": "cell-based, human"}, "nWASP mRNA": {"tested_on": "nWASP mRNA", "experiment": "knock down of nWASP mRNA in HaCaT cells by anti-nWASP transgenes (RT-PCR)", "assay_type": "cell-based, human", "conditions": "HaCaT cells after transfection (electroporation)", "text": "as §3, with “Written informed consent was obtained from each patient who agreed for a biopsy to be taken. Tissues were frozen sectioned on a cryostat (Leica). A portion of the sections were kept for histological analysis. Approximate 20 sections were pooled and homogenised using a hand-held homogenizer using a procedure to extract RNA from the tissues.” left out, “Abnormal/chronic wound tissues were from patients with abnormal/chronic leg ulcers. Acute wound tissues were obtained from patients with acute surgical wounds after undergoing excision of pilonidal disease. Normal tissues were from normal volunteer's normal skin. • 2.” left out"}}, "note": "Entries after “also recorded” stand apart in the source; their conditions may differ."}
{"molecule": "Wiskostatin", "values": [{"measurement": "tubule forming", "setting": "[1]", "result": "strong stimulatory effect on tubule forming"}]}
{"molecule": "CN(C)C[C@H](O)Cn1c2ccc(Br)cc2c2cc(Br)ccc21", "note": "(racemic) [Wiskostatin]", "values": [{"measurement": "size of wounds vs control", "setting": "wound in db/db mice; Wiskostatin systemic 1 μM, p=0.017", "result": "significantly reduced the size of the wounds; also recorded: significant reduction of the size of wound"}, {"measurement": "size of wounds vs control", "setting": "wound in db/db mice; Wiskostatin systemic 10 μM, p=0.04", "result": "significantly reduced the size of the wounds; also recorded: significant reduction of the size of wound"}, {"measurement": "size of wounds vs control", "setting": "wound in db/db mice; Wiskostatin topical-A gel, p=0.044", "result": "significant effect"}, {"measurement": "size of wounds vs control", "setting": "wound in db/db mice; Wiskostatin topical-B gel, p=0.044", "result": "significant effect"}, {"measurement": "wound healing", "setting": "wound in db/db mice; administered systemically (IP), every other day", "result": "Significantly Accelerated Wound Healing"}, {"measurement": "wound healing", "setting": "wound in db/db mice; administered topically in gel", "result": "Significant Effect"}, {"measurement": "tubule formation", "setting": "HECV cells", "result": "neither 187-1 nor Wiskostatin had a major impact"}, {"measurement": "resistance following wounding (migration)", "setting": "HaCaT cells [2]; 1 nM", "result": "rapid rise of resistance"}, {"measurement": "resistance following wounding (migration)", "setting": "HaCaT cells [2]; 10 nM", "result": "rapid rise of resistance"}, {"measurement": "migration of HaCaT cells", "setting": "HaCaT cells [2]; electric wounding assay", "result": "Increased the Migration"}, {"measurement": "side effects", "setting": "[3]", "result": "without Producing any Side Effects"}, {"measurement": "adhesiveness of HaCaT cells to matrix surface", "setting": "HaCaT cells [4]; Wiskostatin 1, 10, 100 nM, 400, 4,000, 40,000 Hz, particularly at 40,000 Hz", "result": "increased the adhesiveness"}, {"measurement": "HGF-induced adhesiveness of HaCaT cells", "setting": "HaCaT cells [4]; with HGF 40 ng/ml, Wiskostatin 1, 10, 100 nM", "result": "further increased the adhesiveness"}, {"measurement": "tolerability", "setting": "[5]", "result": "Well Tolerated"}, {"measurement": "growth of HaCaT cells", "setting": "HaCaT cells [6]", "result": "limited inhibitory effect on the growth and only at a high concentration"}, {"measurement": "effective concentrations relative to those causing toxicity and growth changes", "setting": "HaCaT cells [6]; all effects on cell functions", "result": "far below those that may cause toxicity and growth changes"}]}
{"molecule": "HGF: recombinant human HGF, cell migration inducer / positive control", "values": [{"measurement": "migration of control HaCaT cells", "setting": "HaCaT cells [2]; HGF 40 ng/ml", "result": "increased the migration of control HaCaT cells"}, {"measurement": "migration of nWASP transgene carrying HaCaT cells", "setting": "HaCaT cells [2]; HGF 40 ng/ml", "result": "some limited effect"}, {"measurement": "adhesiveness of HaCaT cells", "setting": "HaCaT cells [4]; HGF 40 ng/ml alone vs control cells", "result": "increased the adhesiveness"}]}
{"molecule": "transgene-1: anti-nWASP antisense-hammerhead ribozyme/RNA transgene, SEQ ID NO 17, cloned into pEF6/V5/His TOPO (nucleic acid, listed as Homo sapiens) DNA: CTGCAGGAGTTCTTTGACCACATACAGTTCCCTGATGAGTCCGTGAGGACGAAATCTGCTGCATATAACTGCACCACACTAGT", "values": [{"measurement": "knocking down nWASP mRNA/transcript", "setting": "nWASP mRNA", "result": "active in knocking down"}]}
{"molecule": "transgene-2: anti-nWASP antisense-hammerhead ribozyme/RNA transgene, SEQ ID NO 18, cloned into pEF6/V5/His TOPO (nucleic acid, listed as Homo sapiens) DNA: CTGCAGACAAGCAACACCACTGCACTTCTTTCTGATGAGTCCGTGAGGACGAAACCACATACAGTTCCGATCTGCTGCATATAACTAGT", "values": [{"measurement": "cell migration of transfected HaCaT cells", "setting": "HaCaT cells [2]", "result": "dramatic increase in cell migration"}, {"measurement": "knocking down nWASP mRNA/transcript", "setting": "nWASP mRNA", "result": "active in knocking down; also recorded: highly active"}]}
{"molecule": "transgene-3: anti-nWASP antisense-hammerhead ribozyme/RNA transgene, SEQ ID NO 19, cloned into pEF6/V5/His TOPO (nucleic acid, listed as Homo sapiens) DNA: CTGCAGGTGCAGCTGTGGGAGCTCTTCTGATGAGTCCGTGAGGACGAAAAGGTGGTGGGGGAGGAGCGCCTCTTCCCCTAGCCTAGT", "values": [{"measurement": "cell migration of transfected HaCaT cells", "setting": "HaCaT cells [2]", "result": "dramatic increase in cell migration"}]}
